# Results published in patent publication US9492471B2, “Methods of treating a disease or disorder associated with Bruton'S Tyrosine Kinase” (Celgene Avilomics Research, Inc., priority 2013, dated 2016).
# Where two headings read alike, the source gives them in different places.
# Columns and labels:
# Test in all cases: HotSpot kinase profiling
# Format in all cases: biochemical
# STK22D/TSSK1 = molecular target: T1, STK22D/TSSK1 (Homo sapiens, UniProt Q9BXA7)
# T1 construct: purchased Reaction Biology Corp
# T1 sequence (Q9BXA7 1-367): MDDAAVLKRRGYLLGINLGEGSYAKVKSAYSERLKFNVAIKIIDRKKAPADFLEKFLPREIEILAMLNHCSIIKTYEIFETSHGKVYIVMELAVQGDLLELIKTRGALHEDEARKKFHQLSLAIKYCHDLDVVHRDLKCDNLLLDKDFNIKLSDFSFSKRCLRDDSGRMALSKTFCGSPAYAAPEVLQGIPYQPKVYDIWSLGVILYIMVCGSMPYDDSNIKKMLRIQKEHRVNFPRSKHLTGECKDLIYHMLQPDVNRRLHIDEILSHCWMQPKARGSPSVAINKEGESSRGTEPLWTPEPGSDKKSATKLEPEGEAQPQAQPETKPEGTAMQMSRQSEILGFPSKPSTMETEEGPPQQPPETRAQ
# Procedure, shortened: (§1)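 Radiometric kinase assay with P81 filter capture; each kinase was added to fresh substrate plus cofactors in reaction buffer and incubated 2 h at room temperature. Unreacted phosphate was washed off with 0.1% phosphoric acid before detection; percent inhibition is relative to DMSO control, averaged over replicates.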
# LIMK2 = molecular target: T2, LIMK2 (Homo sapiens, UniProt P53671)
# T2 construct: purchased Reaction Biology Corp
# Procedure, shortened: as §1
# EPHA8 = molecular target: T3, EPHA8 (Homo sapiens, UniProt P29322)
# T3 construct: purchased Reaction Biology Corp
# T3 sequence (P29322 28-1005): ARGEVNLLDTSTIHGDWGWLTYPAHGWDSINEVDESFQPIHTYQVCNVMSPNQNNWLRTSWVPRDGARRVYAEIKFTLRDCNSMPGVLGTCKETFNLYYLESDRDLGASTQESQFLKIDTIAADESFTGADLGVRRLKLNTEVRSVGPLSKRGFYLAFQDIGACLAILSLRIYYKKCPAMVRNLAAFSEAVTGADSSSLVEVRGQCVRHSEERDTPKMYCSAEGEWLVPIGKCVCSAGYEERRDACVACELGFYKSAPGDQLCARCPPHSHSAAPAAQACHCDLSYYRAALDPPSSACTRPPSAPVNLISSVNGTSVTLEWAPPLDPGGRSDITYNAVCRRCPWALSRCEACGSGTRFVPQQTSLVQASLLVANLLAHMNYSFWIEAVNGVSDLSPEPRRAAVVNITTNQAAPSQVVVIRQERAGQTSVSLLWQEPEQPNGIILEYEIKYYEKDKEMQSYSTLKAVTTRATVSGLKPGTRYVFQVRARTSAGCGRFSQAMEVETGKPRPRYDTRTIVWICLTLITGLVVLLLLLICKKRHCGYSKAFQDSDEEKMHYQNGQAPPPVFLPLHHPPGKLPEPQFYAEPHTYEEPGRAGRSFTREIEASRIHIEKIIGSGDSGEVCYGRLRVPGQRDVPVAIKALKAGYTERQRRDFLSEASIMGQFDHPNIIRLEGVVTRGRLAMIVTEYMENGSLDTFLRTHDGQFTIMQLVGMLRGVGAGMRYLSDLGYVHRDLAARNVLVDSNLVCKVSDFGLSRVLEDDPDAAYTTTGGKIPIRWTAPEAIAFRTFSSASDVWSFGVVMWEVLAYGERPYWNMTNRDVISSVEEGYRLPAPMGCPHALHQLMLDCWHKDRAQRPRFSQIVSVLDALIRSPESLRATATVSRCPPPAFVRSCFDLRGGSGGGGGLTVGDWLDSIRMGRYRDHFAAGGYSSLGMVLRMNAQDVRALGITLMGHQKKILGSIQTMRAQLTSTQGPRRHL
# Procedure, shortened: as §1
# IKKe/IKBKE = molecular target: T4, IKKe/IKBKE (Homo sapiens, UniProt Q14164)
# T4 construct: purchased Reaction Biology Corp
# T4 sequence (Q14164 1-716): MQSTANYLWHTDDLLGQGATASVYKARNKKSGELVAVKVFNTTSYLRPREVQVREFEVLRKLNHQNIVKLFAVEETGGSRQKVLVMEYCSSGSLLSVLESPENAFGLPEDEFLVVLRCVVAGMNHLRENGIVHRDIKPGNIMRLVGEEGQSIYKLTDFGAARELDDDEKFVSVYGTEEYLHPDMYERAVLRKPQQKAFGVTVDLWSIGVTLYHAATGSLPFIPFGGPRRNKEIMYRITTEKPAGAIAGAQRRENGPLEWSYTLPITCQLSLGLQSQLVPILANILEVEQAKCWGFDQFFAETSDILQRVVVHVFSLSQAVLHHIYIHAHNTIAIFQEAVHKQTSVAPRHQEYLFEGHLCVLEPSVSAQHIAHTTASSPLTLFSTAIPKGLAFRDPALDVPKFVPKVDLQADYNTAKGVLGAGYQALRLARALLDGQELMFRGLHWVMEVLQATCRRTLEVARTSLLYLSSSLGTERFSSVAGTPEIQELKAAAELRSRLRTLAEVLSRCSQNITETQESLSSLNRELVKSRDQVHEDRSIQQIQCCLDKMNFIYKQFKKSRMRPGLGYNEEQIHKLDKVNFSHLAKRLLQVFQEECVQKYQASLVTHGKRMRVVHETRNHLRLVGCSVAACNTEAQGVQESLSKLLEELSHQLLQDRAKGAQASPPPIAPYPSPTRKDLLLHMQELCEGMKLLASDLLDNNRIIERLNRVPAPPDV
# Procedure, shortened: as §1
# [1] = read-out: % Enzyme Activity (relative to DMSO controls) Run 1
# [2] = read-out: % Enzyme Activity (relative to DMSO controls) Run 2
# T2 sequence (P53671 whole entry): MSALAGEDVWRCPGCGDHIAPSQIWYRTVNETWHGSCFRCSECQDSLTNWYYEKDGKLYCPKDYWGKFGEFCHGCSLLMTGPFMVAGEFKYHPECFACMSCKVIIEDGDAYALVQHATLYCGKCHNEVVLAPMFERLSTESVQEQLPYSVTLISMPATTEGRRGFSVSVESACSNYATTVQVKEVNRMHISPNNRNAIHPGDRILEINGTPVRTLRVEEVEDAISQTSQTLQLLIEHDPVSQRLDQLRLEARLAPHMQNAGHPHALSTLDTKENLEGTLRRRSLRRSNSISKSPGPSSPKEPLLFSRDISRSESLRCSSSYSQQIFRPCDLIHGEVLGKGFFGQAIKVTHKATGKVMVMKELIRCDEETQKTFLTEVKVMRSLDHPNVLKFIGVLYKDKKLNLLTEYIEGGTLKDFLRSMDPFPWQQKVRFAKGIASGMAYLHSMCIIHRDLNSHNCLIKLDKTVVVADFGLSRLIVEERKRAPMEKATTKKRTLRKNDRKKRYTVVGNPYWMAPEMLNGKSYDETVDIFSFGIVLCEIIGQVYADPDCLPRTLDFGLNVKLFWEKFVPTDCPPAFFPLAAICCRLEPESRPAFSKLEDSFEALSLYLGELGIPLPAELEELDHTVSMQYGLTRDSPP
smiles,measurement,setting,value
C=CC(=O)Nc1cccc(Nc2nc(Nc3ccc(OCCOC)c(F)c3)ncc2F)c1 [Compound 2],inhibition at 3 µM,STK22D/TSSK1,11.1%
same,remaining activity at 3 µM,STK22D/TSSK1; [1],88%
same,remaining activity at 3 µM,STK22D/TSSK1; [2],89.7%
same,inhibition at 3 µM,LIMK2,-0.86%
same,remaining activity at 3 µM,LIMK2; [1],101%
same,remaining activity at 3 µM,LIMK2; [2],101%
same,inhibition at 3 µM,EPHA8,5.98%
same,remaining activity at 3 µM,EPHA8; [1],94.2%
same,remaining activity at 3 µM,EPHA8; [2],93.8%
same,inhibition at 3 µM,IKKe/IKBKE,21.8%
same,remaining activity at 3 µM,IKKe/IKBKE; [1],78.3%
same,remaining activity at 3 µM,IKKe/IKBKE; [2],78.2%
